In patent publication US12037415B2, “Peptide and pharmaceutical composition for treating an eye disease comprising the same as an active pharmaceutical ingredient” (YuYu Pharma, Inc., priority 2017, dated 2024):
Starred links: 1 amine or outer side, 2 acyl side, 3 side chain; linkers in the order of their positions; H or OH if unused. Non-standard residues stand in square brackets, D forms with d. Residues, ends and D or L forms follow the SMILES beside them. ξ: configuration not given here. cisHyp = O=C(O)[C@@H]1C[C@H](O)CN1; X1 = O=C([C@H](CCCCO)N[*:1])[*:2]; Hyp = O=C(O)[C@@H]1C[C@@H](O)CN1; Ile(3ξ) = CCC(C)[C@H](N)C(=O)O; Thr(3ξ) = CC(O)[C@H](N)C(=O)O; pGlu = O=C1CC[C@@H](C(=O)O)N1; hSer = N[C@@H](CCO)C(=O)O

What was measured:
[1] = system: rats with dry eye syndrome (extraorbital lacrimal gland excision, ELGE); assay: Amount of tear secretion (Schirmer test, cobalt chloride paper) in rats with ELGE-induced dry eye syndrome; type: in vivo, rat; conditions: 0.3% solution (DS 3%), administration for 14 days
Description: (§1) In order to evaluate the eye protection effect on dry eye syndrome by YDE-001 to YDE-028 prepared in Working Example 1, a total of 320 Sprague-Dawley-type male rats (OrientBio, Seungnam, Korea) were adapted for 7 days. Thereafter, dry eye syndrome was induced in 264 test rats through extraorbital lacrimal gland excision (hereinafter, ELGE). 8 test rats without the eye abnormality were subjected to a sham operation as a control group.
(§2) The rats were systemically anesthetized by inhaling a mixed gas of 2% to 3% of isoflurane (Hana Pharm. Co., Hwasung, Korea), 70% of N2O, and 28.6% of O2 using a rodent anesthesia machine (Surgivet, Waukesha, Wis., USA) and a ventilator (Model 687, Harvard Apparatus, Cambridge, UK). Thereafter, the extraorbital lacrimal gland located in the subdermal area above the masseter muscle and under the optic nerve was excised through a transverse incision in a size of 10 mm on the anterior part of the left ear tragus. The skin was sutured by a general method. […] After 6 days following the ELGE operation, confirmation was performed through the Schirmer test by measuring the amount of tear secretion whether dry eye syndrome had been induced. Meanwhile, each rat of the control group with the sham operation was checked for the presence and location of the extraorbital lacrimal gland through a skin incision, and the skin was then sutured without the excision thereof (FIG. 134).
(§3) In addition, in order to evaluate the eye protection effect on dry eye syndrome by YDE-029 to YDE-043 prepared in Working Example 1, a total of 200 Sprague-Dawley-type male rats (OrientBio, Seungnam, Korea) were adapted for 7 days. Dry eye syndrome was induced in 165 test rats through the ELGE. 8 test rats without the eye abnormality were subjected to the sham operation as a control group. The ELGE was carried out as described above.
(§4) For YDE-001 to YDE-028, YY-102 and the 28 YDE-series were each dissolved in physiological saline at a concentration of 3 mg/ml and administered at a dose of 5 μl/eye at 9:30 am and 3:30 pm daily for 14 days after 7 days from the ELGE operation for a total of 28 times. The DS solution was dissolved in physiological saline at a concentration of 30 mg/ml and administered at a dose of 5 μl/eye twice a day for 14 days after 7 days from the ELGE operation for a total of 28 times. For the sham control and the ELGE control groups, the same stimulation as the administration was applied. In order to prevent excessive eye dryness, the same volume of physiological saline was applied in the same manner in place of the test substances.
as §4, with “Further, For YDE-029” for “For YDE-001”, “Further, For YDE-029 to YDE-043,” for “For YDE-001 to YDE-028,”, “YDE-029 to YDE-043, YY-102 and” for “YDE-001 to YDE-028, YY-102 and”, “and the 15 YDE-series were” for “and the 28 YDE-series were”, “the test substances (FIG. 137).” for “the test substances.”
After 6 days from the ELGE surgery, the changes in the amount of tear secretion were measured at day 7 and day 14 after the administration of YDE-001 to YDE-043. The amount of tear secretion was measured by the […] travel distance of tears absorbed by cobalt chloride paper in a size of 1×15 mm (Toyo Roshi Kaisha, Japan).
The cobalt chloride paper was placed in the lateral canthus of a rat for 60 seconds to absorb tears (FIG. 139). The length of the area absorbed from the corner of the cobalt chloride paper was measured with an electronic digital caliper (Mytutoyo, Tokyo, Japan) (FIG. 138).

[2] = system: cornea of rats with dry eye syndrome (ELGE); assay: Corneal permeability of fluorescent dye (corneal damage) in rats with ELGE-induced dry eye syndrome; type: in vivo, rat; conditions: 0.3% solution, day 14 after the administration
Description: as §1, §2, §3, §4
as §4, with “Further, For YDE-029” for “For YDE-001”, “Further, For YDE-029 to YDE-043,” for “For YDE-001 to YDE-028,”, “YDE-029 to YDE-043, YY-102 and” for “YDE-001 to YDE-028, YY-102 and”, “and the 15 YDE-series were” for “and the 28 YDE-series were”, “the test substances (FIG. 137).” for “the test substances.”
After YDE-001 to YDE-028 were each administered to the eyes […], the changes in the corneal permeability were checked.
In order to measure the corneal permeability, Zolethyl 50™ (Virbac Lab., Carros, France), an animal anesthetic, was intraperitoneally injected at a dose of 25 mg/kg. Thereafter, saline containing a 1% (v/v) fluorescent solution (fluorescein sodium salt, Tokyo Kasei Kogyo Co., Tokyo, Japan) was applied to the eyes at a dose of 5 μl/eye. The eyes thus treated were closed and fixed with a tape. After 1 hour, the remaining fluorescent solution was removed using a cotton swab (FIG. 142). […]

[3] = Stability in aqueous solution, amount of related substances under long-term storage conditions; type: physicochemical; conditions: glass vial, 25° C., 75% RH
Description: In order to confirm the stability of each test substance in an aqueous solution, […] of each sample was dissolved in 1 ml of water to a concentration of 1 mg/ml, which was then charged to a glass vial, plugged with a rubber cap, sealed with an aluminum cap, and stored under long-term storage conditions (25° C., 75% RH). The stability of the test substance was evaluated by measuring the amount of related substances at the time of one week, two weeks, four weeks, eight weeks, and twelve weeks under the long-term storage conditions.

[4] = study of YDE-029 to YDE-043 (Table 17)
[5] = study of YDE-001 to YDE-028 (Table 16)

Row | Structure (SMILES) | Amount of tear secretion as compared with the ELGE control group ([1]; study of YDE-029 to YDE-043) | Permeability of fluorescent dye (%) [2, 4] [%] | Permeability of fluorescent dye (%) [2, 5] [%] | Amount of related substances (%; after 12 weeks) [3] [%] | Amount of tear secretion as compared with the ELGE control group ([1]; study of YDE-001 to YDE-028)
1 | CC(C)C[C@H](NC(=O)CNC(=O)[C@H](CC(C)C)NC(=O)[C@H](CCC(N)=O)NC(=O)CNC(=O)[C@@H]1CCC(=O)N1)C(=O)N[C@@H](C)C(=O)NCC(=O)N1CCC[C@H]1C(=O)N[C@@H](CCCCN)C(=O)O [YDE-036, (5-oxo)Pro-Gly-Gln-Leu-Gly-Leu-Ala-Gly-Pro-Lys] ([pGlu]GQLGLAGPK-OH) | did not show any significant changes | 57.87 ± 22.91 |  |  | 
2 | CC(C)C[C@H](NC(=O)CNC(=O)[C@H](CC(C)C)NC(=O)[C@H](CCC(N)=O)NC(=O)CNC(=O)[C@@H]1C[C@@H](O)CN1)C(=O)N[C@@H](C)C(=O)NCC(=O)N1CCC[C@H]1C(=O)N[C@@H](Cc1ccc(O)cc1)C(=O)O [YDE-029, HyP-Gly-Gln-Leu-Gly-Leu-Ala-Gly-Pro-Tyr] (H-[Hyp]GQLGLAGPY-OH) | did not show any significant changes | 63.45 ± 11.57 |  |  | 
3 | CC(C)C[C@H](NC(=O)CNC(=O)[C@H](CC(C)C)NC(=O)[C@H](CCC(N)=O)NC(=O)CNC(=O)[C@@H]1C[C@@H](O)CN1)C(=O)N[C@@H](C)C(=O)NCC(=O)N1CCC[C@H]1C(=O)N[C@@H](CCCCO)C(=O)O [YDE-033, HyP-Gly-Gln-Leu-Gly-Leu-Ala-Gly-Pro-Nle(6-OH)] (H-[Hyp]GQLGLAGP[X1]-OH) | did not show any significant changes | 60.55 ± 21.22 |  |  | 
4 | CC(C)C[C@H](NC(=O)CNC(=O)[C@H](CC(C)C)NC(=O)[C@H](CCC(N)=O)NC(=O)CNC(=O)[C@@H]1C[C@H](O)CN1)C(=O)N[C@@H](C)C(=O)NCC(=O)N1CCC[C@H]1C(=O)N[C@@H](CCCCN)C(=O)O [YDE-034, Hyp(2S, 4S)-Gly-Gln-Leu-Gly-Leu-Ala-Gly-Pro-Lys] (H-[cisHyp]GQLGLAGPK-OH) | did not show any significant changes | 32.17 ± 12.94 |  |  | 
5 | CC(C)C[C@H](NC(=O)CNC(=O)[C@H](CCO)NC(=O)[C@H](CCC(N)=O)NC(=O)CNC(=O)[C@@H]1C[C@@H](O)CN1)C(=O)N[C@@H](C)C(=O)NCC(=O)N1CCC[C@H]1C(=O)N[C@@H](CCCCN)C(=O)O [YDE-026, HyP-Gly-Gln-Ser(Homo)-Gly-Leu-Ala-Gly-Pro-Lys] (H-[Hyp]GQ[hSer]GLAGPK-OH) |  |  | 22.63 ± 11.23 | 10.15 | 
6 | CC(C)C[C@H](NC(=O)CNC(=O)[C@H](C)NC(=O)[C@H](CCC(N)=O)NC(=O)CNC(=O)[C@@H]1C[C@@H](O)CN1)C(=O)N[C@@H](C)C(=O)NCC(=O)N1CCC[C@H]1C(=O)N[C@@H](CCCCN)C(=O)O [YDE-008, HyP-Gly-Gln-Ala-Gly-Leu-Ala-Gly-Pro-Lys] (H-[Hyp]GQAGLAGPK-OH) |  |  | 20.32 ± 11.87 | 4.42 | 
7 | CC(C)C[C@H](NC(=O)CNC(=O)[C@H](Cc1ccccc1)NC(=O)[C@H](CCC(N)=O)NC(=O)CNC(=O)[C@@H]1C[C@@H](O)CN1)C(=O)N[C@@H](C)C(=O)NCC(=O)N1CCC[C@H]1C(=O)N[C@@H](CCCCN)C(=O)O [YDE-012, HyP-Gly-Gln-Phe-Gly-Leu-Ala-Gly-Pro-Lys] (H-[Hyp]GQFGLAGPK-OH) |  |  | 31.01 ± 11.38 | 3.57 | 
8 | CCC(C)[C@H](NC(=O)[C@H](CC(=O)O)NC(=O)[C@H](CCC(N)=O)NC(=O)CNC(=O)[C@@H]1C[C@@H](O)CN1)C(=O)N[C@@H](CC(C)C)C(=O)N[C@@H](C)C(=O)NCC(=O)N1CCC[C@H]1C(=O)N[C@@H](CCCCN)C(=O)O (stereo partly drawn) [YDE-016, HyP-Gly-Gln-Asp-Ile-Leu-Ala-Gly-Pro-Lys] (H-[Hyp]GQD[Ile(3ξ)]LAGPK-OH) |  |  | 24.57 ± 10.34 | 11.33 | 
9 | CC(C)C[C@H](NC(=O)[C@@H](NC(=O)[C@H](CC(=O)O)NC(=O)[C@H](CCC(N)=O)NC(=O)CNC(=O)[C@@H]1C[C@@H](O)CN1)C(C)O)C(=O)N[C@@H](C)C(=O)NCC(=O)N1CCC[C@H]1C(=O)N[C@@H](CCCCN)C(=O)O (stereo partly drawn) [YDE-024, HyP-Gly-Gln-Asp-Thr-Leu-Ala-Gly-Pro-Lys] (H-[Hyp]GQD[Thr(3ξ)]LAGPK-OH) |  |  | 30.63 ± 10.41 | 20.59 | 
10 | O=c1ccn([C@@H]2O[C@H](COP(=O)(O)OP(=O)(O)OP(=O)(O)OP(=O)(O)OC[C@H]3O[C@@H](n4ccc(=O)[nH]c4=O)[C@H](O)[C@@H]3O)[C@@H](O)[C@H]2O)c(=O)[nH]1 [DS, diquafosol sodium, reference compound] | increased |  |  |  | increased
11 | CC(C)C[C@H](NC(=O)CNC(=O)[C@@H](NC(=O)[C@H](CCC(N)=O)NC(=O)CNC(=O)[C@@H]1C[C@@H](O)CN1)C(C)O)C(=O)N[C@@H](C)C(=O)NCC(=O)N1CCC[C@H]1C(=O)N[C@@H](CCCCN)C(=O)O (stereo partly drawn) [YDE-007, HyP-Gly-Gln-Thr-Gly-Leu-Ala-Gly-Pro-Lys] (H-[Hyp]GQ[Thr(3ξ)]GLAGPK-OH) |  |  | 32.79 ± 10.77 | 3.76 | 
12 | CC(C)C[C@H](NC(=O)CNC(=O)[C@H](Cc1c[nH]c2ccccc12)NC(=O)[C@H](CCC(N)=O)NC(=O)CNC(=O)[C@@H]1C[C@@H](O)CN1)C(=O)N[C@@H](C)C(=O)NCC(=O)N1CCC[C@H]1C(=O)N[C@@H](CCCCN)C(=O)O [YDE-014, HyP-Gly-Gln-Trp-Gly-Leu-Ala-Gly-Pro-Lys] (H-[Hyp]GQWGLAGPK-OH) |  |  | 31.15 ± 10.87 | 6.72 | 
13 | CC(C)C[C@H](NC(=O)CNC(=O)[C@H](CCCCN)NC(=O)[C@H](CCC(N)=O)NC(=O)CNC(=O)[C@@H]1C[C@@H](O)CN1)C(=O)N[C@@H](C)C(=O)NCC(=O)N1CCC[C@H]1C(=O)N[C@@H](CCCCN)C(=O)O [YDE-005, HyP-Gly-Gln-Lys-Gly-Leu-Ala-Gly-Pro-Lys] (H-[Hyp]GQKGLAGPK-OH) |  |  | 37.98 ± 11.53 | 2.97 | 
